# Entries after “also recorded” stand apart in the source; their conditions may differ.
# How the values were obtained:
# [1] = target: T1, human plasma BChE (Homo sapiens, UniProt P06276); assay: BChE inhibition, IC(50) by logit plot; format: biochemical; details: BChE compared with AChE
# T1 construct: human plasma BChE; from tissue; host or cells: human plasma
# Experimental: The IC (50) values can be determined for such inhibitors using methods well known in the art. In such assay the pharmacological activity of each compound, as an IC (50), defined as the concentration, in nanomoles, required to inhibit 50% of the enzyme activity of AChE and BChE, is determined separately. For determination of IC (50) values, the enzyme activity of each concentration was expressed as a percent of that determined in the absence of each compound. This then was transformed into a logit format, where logit=In (% activity/[100-% activity]), and was plotted as a function of the log concentration of the compound. IC (50) values (i.e., logit=In (50/[100−5O]=0) were determined only from correlation coefficients (r^2) of less than −0.985 and when more than 50% inhibition was achieved from duplicate samples. The selectivity ratio is then determined by comparing the IC (50) values obtained for each compound with AChE to that for BChE.
# [2] = system: βAPP secretion, glioblastoma, HeLa, neuroblastoma and PCI2 cell lines; details: neuronal cells treated with cholinesterase inhibitors; cited from earlier work
# [3] = system: aged Fischer-344 (F344) rats; assay: One-way active avoidance pretraining in straight runway; format: in vivo, rat; details: for mean (s.e.m.) avoidances: pretraining, i.p. daily
# Source text: (§1) Male F344 rats 21-22 months old were obtained from Harlan-Sprague-Dawley under contract from the National Institute on Aging. They were maintained two per cage in a vivarium at the Gerontology Research Center under specific pathogen free conditions as characterized previously.
# (§2) As previously described, the Stone maze is constructed of translucent plastic with a grid floor wired for scrambled foot shocks and is surrounded by gray walls to reduce availability of extra-maze cues. The only other apparatus was a straight runway (2 m) used for pretraining. Similar to the maze, the runway was also constructed of translucent plastic, and contained a grid floor wired for scrambled foot shocks, and was surrounded by gray walls.
# (§3) […] On days 3-5 injections were made 30 min prior to behavioral testing.
# Beginning on day 2 rats were provided training in one-way active avoidance in the straight runway. On each trial, the rat had to locomote from the start box to the goal box within 10 s to avoid the onset of foot shock (0.8 mA). Rats received 10 trials on day 2 and 10 trials on day 3. Training was terminated when the rat met a performance criteria of eight avoidances within 10 consecutive trials within a maximum of 30 trials. Only rats meeting this criterion were tested in the Stone maze on the next day.
# [4] = system: aged Fischer-344 (F344) rats; assay: 14-unit T-maze (Stone maze) learning; format: in vivo, rat
# Source text: In the present study we assessed the effects of chronic cymserine treatment (5 days) on performance of aged Fischer-344 (F344) rats (21-22 months old) in a 14-unint T-maze, referre to as the Stone maze.
# as §1, §2, §3
# Rats received training in the Stone maze scheduled as a 4-trial session during the morning and afternoon on days 4 and 5. During each trial, the rat had to locomote from a start box to a goal box through five maze segments each separated by guiiltine doors. The reinforcement contingency required the rat to negotiate each segment within 10 s to avoid the onset of mild foot shock (0.8 mA), which was terminated when the animal moved through the door into the next segment. After entry into succeeding segments, the door from the preceding segment was closed to prevent backtracking. Recorded as deviations from the correct pathway, errors were the primary dependent variable and were counted automatically by a series of infrared sensors connected to a microprocessor. Run time from the start box to the goal was also recorded automatically. The frequency and duration of foot shock were recorded on a mechanically operated clock.
# [5] = system: βAPP in human neuroblastoma cell lines; assay: Cellular and secreted βAPP levels by immunoblot; format: cell-based
# Experimental: In further studies, the actions of selective AChE (Compounds 2, 3, (phenserine and tolserine) Table 1) and BChE (Compound 4 (cymserine), Table 1) inhibitors were assessed against human neuroblastoma cell lines. Both secreted levels, measured in the conditioned medium, and cellular levels of βAPP, measured in the cell lysates, were assessed and compared to levels achieved in untreated cells.
# A methodology that can be employed to determine the ability of a selected compound to regulate cellular and secreted βAPP levels is as follows:
# 1 to 1.5×10^7 of each cell type (neuronal and non-neuronal) are cultured in their respective medium. Before adding drug, the cells are fed with media containing only 0.5% of FBS (low serum). The cells are then incubated either in the absence or presence of the test compound. Following incubation periods from 12 to 48 hours, the conditioned medium from each plate is collected and both it and the cells are centrifuged at 800 g. for 10 minutes. The conditioned medium is collected and the cells lysed in buffer containing 50 mM Tris-Cl (pH 8.0), 150 mM NaCl, 5 mM EDTA, 2 mM PMSF, 0.5% sodium deoxycholate, 1 ug/ml each of aprotonin, leupeptin and TLCK, and 0.1 ug/ml of pepstatin A. The cells are centrifuged for 10 min at 11,000 g at 4° C. Proteins of the supernatant solution (cell lysate) are measured by the Bradford dye-binding procedure (Bradford, Anal. Biochem. 72: 248-254, 1976).
# For polyacrylamide gel electrophoresis and immunoblotting: in control experiments, an equivalent concentration of ethanol was used as a vehicle which is less than 1% in media. Compound dosages of from about 0.15 mM to 0.5 mM may be used. 100 uL of conditioned media or 30 ug of protein from the total cell lysate is separated on a 12% polyacrylamide gel containing SDS (SDS-PAGE). Immunoblot analysis was performed using the avidinbiotyinylated complex detection kit of Vector Laboratories as described by Lahiri, et al., J. Neurosci: Res. 12:777-787 (1994). The antisera employed is from the mAb22C11 clone (Boehringer Mannheim) which recognizes all mature forms of βAPP found in cell membranes as well as the carboxyltruncated soluble forms secreted into the conditioned media and the APP-like protein. Additionally, the mAb6E10 is employed which recognizes residues 1 to 28 of Aβ. […] Biotinylated secondary antibodies, horse anti-mouse and goat anti-rabbit (Boehringer Mannheim, and Vector Labs) are also used.
# [6] = system: secreted βAPP in CSF; assay: CSF βAPP in rats with or without forebrain cholinergic (nbM) lesions; format: in vivo, rat
# Source text: Cymserine, a representative of selective BChE inhibitors, additionally alters βAPP synthesis/processing in vivo.
# A methodology that can be employed to determine the ability of a selected compound to regulate secreted βAPP levels in vivo is as follows:
# For forebrain cholinergic system lesions, rats receive a unilateral subcortical lesion of the nucleus basalis of Meynert (nbM) using N-methyl-D-aspartate (NMDA) as an excitotoxin. In undertaking this, rats are anesthetized and placed in a stereotaxic apparatus with the upper incisor bar set level with the intra-aural line. A 33 gauge infusion cannula is lowered into two sites within the nbM on one side of the brain (AP bregma, ML −2.8 mm, DV −8.0 mm re: skull and AP bregma −0.8 mm, ML −3.0 mm, DV −7.8 mm, respectively). One microliter of a solution of 50 mM NMDA in PBS buffer (physiological pH) is slowly infused into each site. Controls for the lesion are vehicle alone and the contralateral side of NMDA treated animals.
# Collection of CSF for analysis of βAPP levels is undertaken by withdrawal of an aliquot from the cistern magna of rats immediately following their death. Quantitation of βAPP is undertaken by immunoblot analysis utilizing mAb22C11.
# [7] = Brain and plasma time-dependent kinetics by HPLC; format: in vivo; details: rat
# Experimental: Determination of the brain and plasma time-dependent kinetics of cymserine in the rats is undertaken by administering compound into the saphenous vein of anesthetized animals. Animals are killed by excess anesthetic at specific times and blood and brain samples are immediately taken. The blood is centrifuged (10,000 g, 2 min), plasma is collected and, together with the sample of brain, is stored at −80° C. Quantitation of concentrations of cymserine is undertaken by high performance liquid chromatography.
# [8] = 1.0 mg kg, blocks 3 and 4 vs controls
# T1 sequence (P06276 29-602): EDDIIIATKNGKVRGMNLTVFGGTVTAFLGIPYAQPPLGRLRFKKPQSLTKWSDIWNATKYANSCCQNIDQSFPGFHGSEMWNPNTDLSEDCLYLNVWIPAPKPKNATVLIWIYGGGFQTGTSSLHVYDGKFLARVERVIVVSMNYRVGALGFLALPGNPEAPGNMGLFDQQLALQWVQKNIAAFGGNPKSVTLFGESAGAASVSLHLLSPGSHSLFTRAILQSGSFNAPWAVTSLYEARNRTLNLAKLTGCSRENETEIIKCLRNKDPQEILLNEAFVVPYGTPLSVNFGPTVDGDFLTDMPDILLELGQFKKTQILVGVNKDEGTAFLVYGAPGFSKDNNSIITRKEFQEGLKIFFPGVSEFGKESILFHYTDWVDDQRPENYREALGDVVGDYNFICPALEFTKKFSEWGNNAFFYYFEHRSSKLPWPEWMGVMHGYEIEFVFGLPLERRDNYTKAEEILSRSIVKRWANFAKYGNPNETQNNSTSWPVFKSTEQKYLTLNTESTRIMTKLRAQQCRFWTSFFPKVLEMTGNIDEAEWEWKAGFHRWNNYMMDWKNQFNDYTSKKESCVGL
compound,measurement,setting,value
"CNC(=O)Oc1ccc2c(c1)[C@]1(C)CCO[C@@H]1N2C [Compound 26, physovenine]",selectivity of inhibitory action for BChE versus AChE,[1],selectivity of inhibitory action for BChE
"C=CCN1CCC2(C)c3cc(OC(=O)NC)ccc3N(C)C12 (stereo not drawn) [Compound 20, N^1-allylnorphysostigmine]",selectivity of inhibitory action for BChE versus AChE,[1],provide BChE selectivity
"Nc1ccncc1N [3,4 diaminopyridine]",secretion of βAPP,[2],"none of the other drugs, all classical anticholinesterases, produced a change"
3′-methyl-carbamoyl eseroline,selectivity of inhibitory action for BChE versus AChE,[1],does not provide BChE selectivity
Nc1c2c(nc3ccccc13)CCCC2 [tacrine],secretion of βAPP,[2],reducing it
COP(=O)(OC)C(O)C(Cl)(Cl)Cl (stereo not drawn) [metrifonate],secretion of βAPP,[2],"none of the other drugs, all classical anticholinesterases, produced a change"
"CNC(=O)Oc1ccc2c(c1)[C@]1(C)CCS[C@@H]1N2C [Compound 22, thiaphysovenine]",selectivity of inhibitory action for BChE versus AChE,[1],selectivity of inhibitory action for BChE
"CNC(=O)Oc1ccc2c(c1)[C@]1(C)CCN(C)C1N2 (stereo partly drawn) [Compound 34, N^8-norphysostigmine]",selectivity of inhibitory action for BChE versus AChE,[1],potent and selective inhibitors of BChE
"CC(C)c1ccc(NC(=O)Oc2ccc3c(c2)[C@]2(C)CCN(C)[C@@H]2N3C)cc1 [Compound 4, cymserine]",selectivity of inhibitory action for BChE versus AChE,[1],selectivity for BChE inhibition
same,effects of drug treatment during pretraining,[3]; all dose groups vs control,No effects
same,mean (s.e.m.) avoidances,[3]; 1 mg kg cymserine group,65% (2.8)
same,mean (s.e.m.) avoidances,[3]; 2 mg kg cymserine group,63% (3.8)
same,mean (s.e.m.) avoidances,[3]; 3 mg kg cymserine group,61% (3.9)
same,errors across all trials,[4]; 1 mg kg group vs controls,significantly improved performance
same,shock duration,"[4]; 1.0 mg kg, block 2",significantly reduced
same,run time,[4]; [8],significantly reduced
same,shock duration,[4]; [8],significantly reduced
same,shock frequency,[4]; [8],significantly reduced
same,errors across all trials,[4]; 2 mg kg group vs controls,significantly improved performance
same,run time,"[4]; 2.0 mg kg, block 4",significantly reduced
same,shock duration,"[4]; 2.0 mg kg, block 4",significantly reduced
same,shock frequency,"[4]; 2.0 mg kg, block 4",significantly reduced
same,errors in the Stone maze,[4]; 3 mg kg dose,least effective
same,motoric side effects,"[4]; 3 mg kg dose, a few rats",fine tremor
same,shock duration,"[4]; 3.0 mg kg, block 4",significantly different from controls
same,number of errors made in the Stone maze,"[4]; all doses, compared with control condition",significantly reduced
same,learning / cognitive performance of aged rats in the Stone maze,[4]; chronic treatment (5 days),improves cognitive performance; also recorded: markedly improved
same,side effects,[4]; doses other than 3 mg kg,no side effects were noted
same,cellular levels of βAPP,"[5]; cell lysates, compared to untreated cells",dramatically reduced
same,secreted βAPP levels,"[5]; conditioned medium, compared to untreated cells",reduced
same,βAPP levels assessed by mAb22C11 and 6E10,"[5]; immunoblot, FIG. 2",dramatically reduce
same,"effect on other secretory proteins, such as HSP-70","[5]; immunoblot, selectivity control",without affecting
same,levels of βAPP in CSF,"[6]; animals without cholinergic lesions, cymserine alone versus pure control rats",reduced
same,elevation of secreted βAPP in CSF,"[6]; rats with forebrain cholinergic lesions, intraperitoneal twice daily for 7 days",blocks the elevation
same,CSF βAPPγ levels,"[6]; rats, FIG. 3 legend",reduces
same,brain levels relative to plasma levels,[7]; 1 mg/kg by the intravenous route,~40 fold
same,crossing of the blood-brain barrier,[7]; systemic administration,readily cross the blood-brain barrier
"CNC(=O)Oc1ccc2c(c1)C1(C)CCN(C)C1N2Cc1ccccc1 (stereo not drawn) [Compound 30, N^8-benzylnorphysostigmine]",selectivity of inhibitory action for BChE versus AChE,[1],potent and selective inhibitors of BChE
"Cc1ccccc1NC(=O)Oc1ccc2c(c1)[C@]1(C)CCN(C)[C@@H]1N2C [Compound 3, tolserine, reference compound]",selectivity of inhibitory action for BChE versus AChE,[1],no selectivity for BChE
